Patent US5484940A, “Substituted 3-indolyl-5-pyrazolone compounds” (priority 1994, dated 1996)

Assays:
[1] = tested on: β-amyloid peptide production; assay: Cellular screen for inhibitors of β-amyloid production (ELISA, 293 751 SWE cells); assay type: cell-based, human; details: 2 h pretreatment + 2 h, normalized for cytotoxicity (MTT), concentration not given
Outline: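 293 751 SWE cells (K293 stably expressing APP751 Swedish mutant) pretreated 2 h with compound, then fresh compound-containing medium for 2 h more at 37 °C. Secreted β-amyloid in conditioned medium quantified by sandwich ELISA (capture 266 anti-Aβ13-28, labelled 6C6 anti-Aβ1-16) against a standard curve as ng/mL; mean ± SD of ≥6 replicates.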

293 751 SWE cells = assay: Cytotoxicity (MTT) in 293 751 SWE cells; assay type: cell-based, human; details: concentration not given
Outline: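 Used HEK293 cells stably expressing APP751 carrying the Swedish double mutation (K651N/M652L), plated at 1.5-2.5×10^4 cells/well in DMEM + 10% FBS. MTT was added to a final 1 mg/mL for 1 h at 37 °C, then lysed in SDS/DMF (pH 4.7) overnight. Viability was read as OD562 − OD650.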

human cortical neurons = assay: Inhibition of toxicity of β-amyloid peptide to human neuronal cells (alamarBlue); assay type: cell-based; details: 50 μM β-amyloid peptide, 2-3 days; on average where more than one duplicate experiment; compound concentration not stated
Outline: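 Primary human cortical neurons, cultured in MEM/B27, were exposed to test compound plus 50 μM β-amyloid peptide in MEM for 2-3 days at 37 °C. Neuronal survival was quantified by reduction of 10% alamarBlue in MEM (fluorometric/colorimetric metabolic indicator).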

rat cortical neurons = assay: Inhibition of toxicity of β-amyloid peptide to rat neuronal cells (alamarBlue); assay type: cell-based; details: 10 to 20 μM β-amyloid peptide, 2-3 days; on average where more than one duplicate experiment; compound concentration not stated
Experimental: The purpose of this test is to determine the effect of 3-indolyl-5-pyrazolone compounds on the toxicity of β-amyloid peptide to neuronal cells.
Primary rat cortical cultures were established from 18 day rat fetuses. Cortical tissue was dissociated by incubation in a trypsin/EDTA solution (0.05% trypsin+0.53 mM EDTA in HBSS; GIBCO Laboratories, Grand Island, N.Y., USA) for 20 minutes at 37° C. The trypsin was then inactivated by resuspending the cells in serum-containing medium (DMEM/FBS): Dulbecco's Modified Eagles' Medium (DMEM) containing 4.5 g/L glucose, 1 mM sodium pyruvate, 1 mM glutamine, 100 Units/mL penicillin, 100 μg/mL streptomycin, and supplemented with 10% heat-inactivated fetal bovine serum (GIBCO Laboratories, Grand Island, N.Y., USA). Cells were then pelleted by centrifugation and resuspended in a chemically-defined medium (DMEM/B27: DMEM containing B27 supplement; GIBCO Laboratories, Grand Island, N.Y., USA) in place of FBS. Polyethyleneimine (PEI; Sigma Chemical Company, St. Louis, Mo., USA)-coated 6.4 mm (96-well) dishes were timed once with DMEM/FBS, and then seeded at 0.75 to 1.25×10^5 cells per well in 0.1 mL DMEM/B27. Cultures were maintained in a H2 O-saturated incubator with an atmosphere of 90% air/10% CO2 at 37° C. Cell viability was visually assessed by phase contrast microscopy and quantified by measuring the reduction of alamarBlue™ (Alamar biosciences, Inc., Sacramento, Calif., USA) as described below. Serum replacement with B27 supplement yields nearly pure neuronal cultures as judged by immunocytochemistry for glial fibrillary acidic protein and neuron-specific enolase (Brewer, et al.^20)
β-amyloid peptide stock solutions were prepared as 1 mM stocks in sterile, doubly distilled water immediately prior to addition to cultures. Rat cortical neurons were exposed to β-amyloid peptide by removing the culture medium and replacing it with DMEM/N2 (GIBCO Laboratories,Grand Island, N.Y., USA) containing 10 to 20 μM β-amyloid peptide. Human cortical neurons were exposed to test compound plus β-amyloid peptide by removing the culture medium and replacing it with MEM containing 50 μM β-amyloid peptide. Cultures were maintained for 2-3 days before neuronal survival was quantified using alamarBlue™.
The alamarBlue™ assay incorporates a fluorometric/colorimetric metabolic indicator (Alamar Biosciences, Inc. Sacramento, Calif., USA). Viable cells convert alamarBlue™ from an oxidized (non-fluorescent, blue) form to a reduced (fluorescent, red) form. Assays were preformed by replacing the culture media with a 10% alamarBlue™ solution in DMEM (rat cortical cultures) or MEM (human cortical cultures).

`COc1ccc2c(c1)c(CC1=NN(c3cccc(C(F)(F)F)c3)C(=O)C1)c(C)n2C(=O)c1ccc(Cl)cc1` [Example 25, 3-[1-(4-chlorobenzoyl)-5-methoxy-2-methyl-3-indolylmethyl]-1-(3-trifluoromethylphenyl)-5-pyrazolone] was tested, and the “reduction of β-amyloid peptide production as compared to control” value [1] was “at least 20%”, the “cytotoxic effect on the 293 751 SWE cells” value (293 751 SWE cells) was “did not have a significant cytotoxic effect” and the “inhibition of the toxicity of β-amyloid peptide to human neuronal cells” value (human cortical neurons) was “at least 25%”. The “inhibition of the toxicity of β-amyloid peptide to rat neuronal cells” value (rat cortical neurons) was “at least 10%”.
